Columns and labels:
[1] = tested on: PBMCs (Peripheral blood mononuclear cells); test: Calcein AM cytotoxicity assay; conditions: SEQ ID 2 80 μg/mL, doxorubicin 100 μM; 48h
Protocol: (§1) All the cancer cell lines were procured from National Centre for Cell Science, Pune (India). The cell lines were maintained under conditions as described in Table 21 below. The cell lines were sub-cultured by trypsinization followed by splitting the cell suspension into fresh flasks and supplementing with fresh culture medium.
(§2) All the cell lines were grown in specified media at 37° C. with 95% Humidity and […].
(§3) The cells were trypsinized, counted by Trypan blue method in Neuebauer's Chamber and plated in wells of flat bottom 96-well plate (dark walled plate, flat bottom) at the density corresponding to 10×10^3 cells/well/180 μl medium.
(§4) Following overnight incubation, the cells were treated with test item (20 μL) at concentrations ranging from 2.5-80 μg/mL, so that the total volume in each well is 200 μL.
(§5) The cells were incubated with the test items or positive control for a time period of 48h. Following incubation, the cell cytotoxicity was estimated using Calcein AM Cell Viability Assay Kit from R&D systems (Cat No. 4892-010-K).
(§6) Fluorescence was measured at 485 nm (excitation/528 run (emission) spectra using Synergy HT micro plate reader.
(§7) Percentage cytotoxicity wrt untreated cells was calculated using formula:
(§8) Cytotoxicity=[(RFUuntreated−RFUsample)/RFUuntreated]*100
(§9) RFU: relative fluorescence units
(§10) IC50 value was calculated using Graph-Pad Prism version 4.01 software.

[2] = tested on: PC-3 (Human Prostate Cancer); test: Calcein AM cytotoxicity assay; conditions: SEQ ID 2 80 μg/mL, doxorubicin 100 μM; 48h
Protocol: as §1, §2, §3, §4, §5, §6, §7, §8, §9, §10

[3] = tested on: Human Primary mammary epithelial (HMEC) cells; test: Calcein AM cytotoxicity assay; conditions: SEQ ID 2 80 μg/mL, doxorubicin 100 μM; 48h
Protocol: as §1, §2, §3, §4, §5, §6, §7, §8, §9, §10

[4] = tested on: A549 (Human lung carcinoma); test: Calcein AM cytotoxicity assay; conditions: SEQ ID 2 80 μg/mL, doxorubicin 100 μM; 48h
Protocol: as §1, §2, §3, §4, §5, §6, §7, §8, §9, §10

[5] = tested on: THP-1 (Human acute monocytic leukemia); test: Calcein AM cytotoxicity assay; conditions: SEQ ID 2 80 μg/mL, doxorubicin 100 μM; 48h
Protocol: as §1, §2, §3, §4, §5, §6, §7, §8, §9, §10

[6] = tested on: TNF-α; test: biomarker levels in IOMM-Lee by multiplex analysis; type: cell-based, Human
Source text: (§11) Effect of SEQ ID No 2 on the expression of following 7 biomarkers were estimated in Human Meningioma cell line (IOMM-Lee) using multiplex analysis: TNF-alpha, VEGF, VEGFR2, HGF, HGFR/c-MET, PDGF-BB, and Contactin-1. Levels of another marker, Notch-1 were also estimated by ELISA in the same cell line. These 8 biomarkers play very crucial role in the pathogenesis and progression of Brain Tumor. […] Supernatants were collected and the levels of these 8 markers were investigated.

[7] = tested on: Contactin-1; test: biomarker levels in IOMM-Lee by multiplex analysis; type: cell-based, Human
Source text: as §11

[8] = tested on: HGFR/c-MET; test: biomarker levels in IOMM-Lee by multiplex analysis; type: cell-based, Human
Source text: as §11

[9] = tested on: VEGF; test: biomarker levels in IOMM-Lee by multiplex analysis; type: cell-based, Human
Source text: as §11

[10] = tested on: PDGF-BB; test: biomarker levels in IOMM-Lee by multiplex analysis; type: cell-based, Human
Source text: as §11

[11] = tested on: HGF; test: biomarker levels in IOMM-Lee by multiplex analysis; type: cell-based, Human
Source text: as §11

[12] = tested on: VEGFR2; test: biomarker levels in IOMM-Lee by multiplex analysis; type: cell-based, Human
Source text: as §11

[13] = tested on: MDA-MB-231; test: Cell cycle analysis (PI stain); type: cell-based, Human; conditions: 24 h
Protocol: (§12) The cell lines were maintained in DMEM+10% FBS (heat inactivated) at 37° C. with 5% CO2, and 95% humidity. Antibiotics Penicillin (100 U/mL) and Streptomycin (100 μg/mL) were added to the medium.
(§13) The stock solution of recombinant lectin having the amino acid sequence of SEQ ID NO. […] Doxorubicin was used as positive control and stock solution was prepared in DMSO.
(§14) Cells were counted using hemocytometer and plated in culture plates at density of 0.5×10^6 cells/well in DMEM+10% FBS in 6-well plates. Cells were incubated overnight to allow the cell recovery and exponential growth. Following overnight incubation, cells were sera starved in DMEM+1% FBS for 4 h. […] Untreated cells were included as Control group for test item. Cells treated with Doxorubicin were included as Positive Control group. DMSO treated cells were included as control group for Doxorubicin. After treatment, cells were incubated for a time period of 24 h. Following incubation, the pro-apoptotic effect by cell cycle was determined as follows: Cell cycle reagent contains PI stain, which stains DNA of cells in different phases of cell cycle; Sub(G0/G1), G1, S, G2 and M. Cells in Sub(G0/G1) phase correspond to apoptotic cells.
(§15) Cells were gently harvested into pre-labeled centrifuge tubes and centrifuged at 450 g for 5 min, RT (low brake). The supernatants were removed carefully (not to touch the pellet) and discarded. 1 mL of 1×PBS was added to the pellet and resuspended gently to make homogenous suspension. Cells were centrifuged at 450 g for 5 min, RT (low brake) (washing step). The supernatant was carefully removed leaving behind approx 100 μL of PBS. Cells were resuspended gently yet thoroughly in residual PBS. Ice-cold 70% ethanol (300 μLI) was added drop-wise into cells in each tube while vortexing at low speed (fixation step). Cells were stored at 4° C. for 24 h prior to staining.
(§16) Ethanol fixed cells were centrifuged at 450 g for 5 min, RT (low brake). The supernatant was carefully removed (not to touch the pellet) and discarded. (The pellet might not be visible but makes a thin film on surface of tube). 1 mL of 1×PBS was added into pellet and resuspended gently. Cells were incubated for 1 min at RT. Cells were centrifuged at 450 g for 5 min, RT (low brake) (washing step). The supernatant was removed carefully leaving behind approx 20 μL-50 μL of PBS. 200 μL of Cell Cycle reagent was added into each tube.
(§17) Cells were resuspended gently, mixed and were incubated for 30 min, RT, Dark. The stained samples were transferred into 96-well plates and acquired on flow cytometer (Guava technologies). Percentage of cells in Sub (G0/G1) phase were determined. Fold increase in apoptotic cells (treated with Test Items) was determined as compared to Control (untreated cells).

[14] = tested on: PANC-1; test: Cell cycle analysis (PI stain); type: cell-based, Human; conditions: 24 h
Protocol: as §12, §13, §14, §15, §16, §17

SMILES: COc1cccc2c1C(=O)c1c(O)c3c(c(O)c1C2=O)C[C@@](O)(C(=O)CO)C[C@@H]3O[C@H]1C[C@H](N)[C@H](O)[C@H](C)O1 [Doxorubicin, reference compound]
- Cytotoxicity at highest concentration tested [1]: 64.3%
- Cytotoxicity at highest concentration tested [2]: 75.3%
- Cytotoxicity at highest concentration tested [3]: 87.6%
- Cytotoxicity at highest concentration tested [4]: 78.4%
- Cytotoxicity at highest concentration tested [5]: 33.6%
- Percentage inhibition on levels of TNF-α ([6]; 1 μM): 67.8%
- Percentage inhibition on levels of TNF-α ([6]; 10 μM): 42.3%
- Percentage inhibition on levels of Contactin-1 ([7]; 1 μM): 50%
- Percentage inhibition on levels of Contactin-1 ([7]; 10 μM): 23.3%
- Percentage inhibition on levels of HGFR/c-MET ([8]; 1 μM): 45.5%
- Percentage inhibition on levels of HGFR/c-MET ([8]; 10 μM): 55.2%
- Percentage inhibition on levels of VEGF ([9]; 1 μM): 53%
- Percentage inhibition on levels of VEGF ([9]; 10 μM): 93.4%
- Percentage inhibition on levels of PDGF-BB ([10]; 1 μM): 12%
- Percentage inhibition on levels of PDGF-BB ([10]; 10 μM): 100%
- Percentage inhibition on levels of HGF ([11]; 1 μM): 45.3%
- Percentage inhibition on levels of HGF ([11]; 10 μM): 84%
- Percentage inhibition on levels of VEGFR2 ([12]; 1 μM): 38.2%
- Percentage inhibition on levels of VEGFR2 ([12]; 10 μM): 50.1%
- % Population of cells, Apoptotic Sub(G0/G1) ([13]; 10 μM): 11.09%
- % Population of cells, G0/G1 ([13]; 10 μM): 40.26%
- % Population of cells, G2/M ([13]; 10 μM): 18.52%
- % Population of cells, S ([13]; 10 μM): 22.70%
- % Population of cells, Apoptotic Sub(G0/G1) ([13]; 100 μM): 92.02%
- % Population of cells, G0/G1 ([13]; 100 μM): 5.64%
- % Population of cells, G2/M ([13]; 100 μM): 0.83%
- % Population of cells, S ([13]; 100 μM): 1.17%
- % Population of cells, Apoptotic Sub(G0/G1) ([14]; 10 μM): 14.74%
- % Population of cells, G0/G1 ([14]; 10 μM): 15.84%
- % Population of cells, G2/M ([14]; 10 μM): 27.44%
- % Population of cells, S ([14]; 10 μM): 18.45%
- % Population of cells, Apoptotic Sub(G0/G1) ([14]; 100 μM): 89.13%
- % Population of cells, G0/G1 ([14]; 100 μM): 9.65%
- % Population of cells, G2/M ([14]; 100 μM): 0.15%
- % Population of cells, S ([14]; 100 μM): 0.59%
